Experimental data from US9005649B2, “Methods for making controlled delivery devices having zero order kinetics” (Board of Regents, the University of Texas System, priority 2009, dated 2015).

Legend:
[1] = intravenous, AIDS patients with CMV retinitis; cited from earlier work
[2] = continuous release for seven days, glaucoma; cited from earlier work
[3] = Release of crystal violet from impermeable polyimide tube delivery devices into phosphate buffered saline (USP Disintegration Apparatus, UV-Vis); type: physicochemical; conditions: for linearity of release: 28 days; for total duration of release, percentage release extrapolated to 100%: PBS pH 7.37, 37° C., 28 days data
Description: Lengths of polyimide tubes were provided having a length of 20 mm and a diameter of 125 microns. At the centre of each tube, a passageway with a diameter of 30 microns was made using standard chemical procedures.
Seven (7) tubes having the optimal passageways were selected and loaded with a concentrated solution of crystal violet in ethanol by capillary method. The tubes were then allowed to stand for 24 hours at room temperature to evaporate alcohol from the tubes, such that the tube is tightly packed with a solid crystal violet composition.
After taking an initial weight measurement, an average amount of 126 micrograms of crystal violet was estimated inside the tubes. The ends of the tubes were sealed with a bioglue and dried.
Single passageway tubes made according to Example I were placed in microvials containing 0.26 ml of phosphate buffered saline (0.01 M phosphate, pH 7.37). The vials were placed in a USP Disintegration Apparatus having dip rate of 30-32 dips per minute. The apparatus was connected to a waterbath maintained at 37° C. for the entire duration of study. The buffer was changed every 48 hours, sampled, and analyzed for the amount of crystal violet released using a UV-Vis Spectrophotometer for 28 days.
Several drug delivery devices were constructed in accordance with in Example I except that two passageways were made located equidistant from the tube centre. The optimal seven (7) were selected and loaded with crystal violet in accordance with Example I.
Several drug delivery devices were constructed in accordance with Example I except that three passageways were made located equidistant from each end of the tube. The optimal seven (7) were selected and loaded with crystal violet in accordance with Example I.
Seven (7) lengths of polyimide tubes were provided having a length of 20 mm and a diameter of 125 microns. The tubes were then loaded with a concentrated solution of crystal violet in ethanol by capillary method. The tubes were then allowed to stand for 24 hours at room temperature to evaporate alcohol from the tubes, such that the tube is tightly packed with a solid crystal violet composition. One end of the tube was sealed with a bioglue while the other end was left open.
A drug delivery device made in accordance with Example VIII was subjected to release studies as described in Example II. […] The percentage release when extrapolated to 100% corresponds to the total duration of release of approximately 2 years.

[4] = Release of crystal violet from single outlet port devices of 200, 400 and 600 microns inside diameter (incubator, UV-Vis); type: physicochemical; conditions: one outlet port devices, 200, 400, 600 microns inside diameter, 3.0 ml PBS pH 7.37, 37° C., 7 days
Description: Drug delivery devices were made having one outlet port and one sealed end. […] Three different variation of devices were prepared with different inside diameters, as in 200, 400, and 600 microns. Four devices of each type were subjected to release studies as described in Example I. Single passageway tubes were placed in micro vials containing 3.0 ml of phosphate buffered saline (0.01 M phosphate, pH 7.37). The vials were placed in an incubator maintained at 37° C. for the entire duration of study. The buffer was changed every 24 hours, sampled, and analyzed for the amount of crystal violet released using a UV-Vis Spectrophotometer for seven (7) days.

[5] = Release of crystal violet from impermeable polyimide tube delivery devices into phosphate buffered saline (USP Disintegration Apparatus, UV-Vis); type: physicochemical; conditions: single outlet port device

SMILES: Nc1nc(O)c2ncn(COC(CO)CO)c2n1 [Ganciclovir]
- patients experiencing bone marrow toxicity resulting in neutropenia (neutrophil count <1000) [1]: 30-50%

SMILES: CC[C@@H]1C(=O)OC[C@@H]1Cc1cncn1C [pilocarpine]
- release rate from ocular insert [2]: 20 to 40 µg/h

SMILES: CN(C)c1ccc(C(=C2C=CC(=[N+](C)C)C=C2)c2ccc(N(C)C)cc2)cc1 [crystal violet]
- amount released relative to single passageway device ([3]; double passageway device): two-fold
- linearity of release ([3]; double passageway device): significant linear agent release
- total duration of release, percentage release extrapolated to 100% ([3]; double passageway device): approximately 22 years
- total duration of release, percentage release extrapolated to 100% ([3]; single passageway device (30 micron passageway, 20 mm x 125 micron tube)): approximately 43 years
- linearity of release ([3]; single passageway device): significant linearity of release
- amount released relative to single passageway device ([3]; triple passageway device): three-fold
- linearity of release ([3]; triple passageway device): significant linear agent release
- total duration of release, percentage release extrapolated to 100% ([3]; triple passageway device): approximately 15 years
- linearity of release [4]: significant linearity of release
- linearity of release ([5]; 5 days): significant linearity of release
- total duration of release, percentage release extrapolated to 100% ([5]; no surface passageways, one open end, 5 days data): approximately 2 years
